Read-outs that look alike come from different tables or passages of the source.

Data on nine molecules can be found in publication PMC7595621, “Quorum sensing N-Acyl homoserine lactones are a new class of anti-schistosomal” (PLoS Neglected Tropical Diseases, 2020).

Data set [1] relates to adult S. mansoni worm pairs. Put plainly: Screening of adult S. mansoni blood flukes (7-week worms), WHO-TDR motility scoring. It counts as cell-based, Schistosoma mansoni. Particulars: for EC50: 7-week worms, motility, 95% confidence interval; for EC50 / effect on adult worm motility/lethality: 72 hr; for effect on adult worm motility/lethality: highest dose 20 μM. How it is done: (§1) Adult S. mansoni parasites were recovered by hepatic portal vein perfusion from TO outbred mice (HsdOla:TO, Tuck-Ordinary, Envigo, UK) that were percutaneously infected seven weeks earlier with 180 cercariae. Three adult worm pairs per well, in duplicate, were transferred into 48 well plates (Fisher Scientific, Loughborough, UK) and cultured at 37 °C in an atmosphere containing 5% CO2 in DMEM (Gibco, Paisley, UK) containing 10% v/v HEPES, 10% v/v Foetal Bovine Serum (FBS), 0.7% v/v 200 mM L-Glutamine and 1X v/v penicillin-streptomycin. Worms were dosed with test compounds at 20 μM, 10 μM, 5 μM, 2.5 μM, 1.25 μM and 0.625 μM (in 0.2% DMSO) for 72 hr. Adult worms were scored manually at 72 hr using the WHO-TDR metric scoring system as described previously. Dose response curves and EC50 values were obtained by non-linear regression, after log transformation of concentrations and data normalization using GraphPad Prism 7.02. At 72 hr, the medium from each well was also collected, centrifuged at 350 x g for 2 min. Afterwards, the supernatant was removed, and the remaining egg pellet re-suspended in 10% v/v formalin. Eggs that were oval and contained a fully formed lateral spine were subsequently counted.
(§2) Fig 3 Adult schistosome motility and egg production are differentially affected by the nine N-acyl homoserine lactones. […] Parasite motility was evaluated for each sex and scored using the WHO-TDR scoring system (0 = Dead parasite, 4 = Normal/Healthy movement). B) Culture media were collected from some adult co-cultures at 72 hrs and eggs present in the media were counted. p values are indicated as follows: * <0.05, ** <0.01, *** <0.001.
Initially, these screens were conducted at 20 μM; any compounds that scored a 1 or 0 for motility at this primary concentration were further titrated until no further effect was observed. […] Similar to the schistosomula assays, the differences observed in adult parasite motility when treated with the (R)- and (S)- enantiomers of Compound 1 were striking. […] Estimated EC50s for male and female parasites for these two enantiomers were determined (Table 2), with Compound 5 ((R)- enantiomer) having greater activity than Compound 6 ((S)- enantiomer).

The test system of another data set is S. mansoni schistosomula. Put plainly: Screening of S. mansoni schistosomula (Roboworm, motility and phenotype). It is filed as cell-based, Schistosoma mansoni. The note with it: for EC50: Schistosoma mansoni; for Selectivity index, schistosomula motility: HepG2 CC50 / schistosomula motility EC50; for Selectivity index, schistosomula phenotype: HepG2 CC50 / schistosomula phenotype EC50. The protocol:
Biomphalaria glabrata (NMRI and the previously described pigmented strains) snails infected with S. mansoni (Puerto Rican strain) were shed for 2 hrs under light at 26 °C. Cercariae were collected, mechanically transformed into schistosomula and subsequently prepared for high throughput screening (HTS) on the Roboworm platform as previously described. Schistosomula were cultured in Basch Media (composed of BME media, 10% M169 media, 0.5x MEM vitamins, 10% Schneider’s insect media, 15.6mM Hepes, 5% heat inactivated FBS, 2x Antibiotic/anti-mycotic (Sigma-Aldrich, UK) solution (final concentrations shown)).
EC50 values were calculated from the titrated concentrations by non-linear regression, after log transformation of concentrations and data normalization using GraphPad Prism 7.02.
Fig 2 Anti-schistosomula activity of the eight analogues compared to parent compound 1. […] Test plates were incubated at 37°C for 72 hrs in an atmosphere containing 5% CO2. At 72hrs, schistosomula were scored using the Roboworm platform for both motility (A) and phenotype (B). Any compound that induced a score of below -0.35 for motility (A) and -0.15 for phenotype (B) were considered a hit. Black squares indicate the most positive effect on motility or phenotype; grey scale from dark grey to lighter shades of grey indicates a progressive reduced compound efficacy; white squares indicate no effect on either phenotype or motility. Z´ values for this screen was 0.41741 for motility and 0.57275 for phenotype. (C) Phenotypes of schistosomula when treated with 10μM of each of the test compounds and controls.
Supplementary file pntd.0008630.s003.tif: S1 Fig Initial schistosomula screens of the 14 compounds and their intermediate analogues. […] Test plates were incubated at 37°C for 72 hrs in an atmosphere containing 5% CO2. At 72hrs, schistosomula were scored using the Roboworm platform for both motility and phenotype as previously described. A) Of the 14 compounds evaluated, two fell within the hit region. Z’ scores for motility and phenotype were 0.40079 and 0.56846 respectively. […] Z´ scores for motility and phenotype were 0.37864 and 0.47882 respectively. *Average EC50 value across motility and phenotype is presented for each compound. (TIF) Click here for additional data file.

Data set [2] in a line: Cell cytotoxicity assay (MTT). It is filed as cell-based, human. Particulars: human, HepG2 cells, MTT, 95% confidence interval, called EC50.
Procedure: The cytotoxicity of each compound was assessed on human HepG2 cells as described previously [17]. Briefly, 2 x 10^4 cells/well were seeded in black walled 96-well microtiter plates (Fisher Scientific, Loughborough, UK) and incubated for 24 hr at 37°C in a humidified atmosphere containing 5% CO2. […] Following a further incubation for 24 hr, the MTT assay was performed as previously described [17, 27]. Dose response curves were obtained by non-linear regression, after log transformation of concentrations and data normalization using GraphPad Prism 7.02.
The next data set has as its system S. aureus ATCC 29213. The data set is described as follows: Broth microdilution MIC and IC50 determination, S. aureus. It is filed as cell-based, Staphylococcus aureus. Particulars: Staphylococcus aureus, ATCC29213, 24 h, 24 hr. How it is done:
(§3) S. aureus ATCC 29213 and E. coli ATCC 25922 were cultured in Luria-Bertani (LB) medium at 37°C with aeration at 200 rpm for 24 hr, with all procedures performed in a biosafety level 2 (BSL2) cabinet. Stationary phase cultures were then used for minimum inhibitory concentration (MIC) determination using the broth microdilution method, in fresh LB medium, in a 96-well plate. All compounds were tested in triplicate using an initial bacterial concentration of 5.0 × 10^5 colony forming units (CFU)/mL at a final concentration of 125 mg/L (5% and 2.5% v/v methanol). Compounds with no visible growth at 125 mg/L were further evaluated with progressing dilutions. […] Dilutions were repeated in three independent experiments where the optical density (OD600) was measured in a Hidex plate spectrophotometer and absorbance data used for the calculation of an IC50 value. The IC50 value was obtained from a dose response titration (125–0.09 mg/L). Dose response curves were obtained by non-linear regression, after log transformation of concentrations and data normalization using GraphPad Prism 7.02.
(§4) As Compound 1 was structurally similar to N-acyl homoserine lactones, a compound class involved in bacterial quorum sensing, we decided to assess its antimicrobial activity and determine if enantiomer separation or lactone ring substitution would change this activity.

A further data set deals with E. coli ATCC 25922. The data set is described as follows: Broth microdilution MIC and IC50 determination, E. coli. The note with it: Escherichia coli, ATCC25922, 24 h, 24 hr. It counts as cell-based. How it is done: as §3, §4
Data set [3] deals with adult S. mansoni worm pairs (egg production). The data set is described as follows: In vitro egg production of adult S. mansoni worm pairs. It counts as cell-based, Schistosoma mansoni. The note with it: 72 hr, compared to DMSO. The protocol: as §1, §2
As morbidity associated with schistosomiasis is caused by egg-induced granuloma formation in tissues and the subsequent development of fibrotic lesions around these granulomas, compound-mediated modulation of in vitro egg production (as a surrogate for the in vivo pathology initiator) was next assessed (Fig 3B). […] In comparison to the negative control DMSO, in which egg counts ranged from 300–594 (Average—408), all N-Acyl homoserine lactones affected fecundity.

For data set [4], the system named is juvenile S. mansoni worms. Put plainly: Propidium iodide (PI) staining of juvenile S. mansoni worms. Particulars: 15 μM, 72 hrs. It is filed as cell-based, Schistosoma mansoni. How it is done: Juvenile S. mansoni parasites were recovered via hepatic portal vein perfusion from TO outbred mice (HsdOla:TO, Tuck-Ordinary, Envigo, UK) that were infected percutaneously three weeks earlier with 4000 cercariae. Preparation and centrifugation of juvenile worms have been described previously. […] After motility quantification, 2 μg/mL of PI was added to each well and the plate returned to 37°C, 5% CO2 for 15 minutes. Each well was subsequently imaged on the Roboworm platform using brightfield and fluorescent microscopy (excitation wavelength = 580 nm; emission wavelength = 604 nm). The number of PI positive vs PI negative juvenile worms were cross-checked with the motility scores obtained by our scoring matrix, and the data reported as percentage of PI positive across all parasites within the well. EC50 values were calculated from the motility scores obtained from the dose response titration (as detailed above) and dose response curves were obtained by non-linear regression, after log transformation of concentrations and data normalization using GraphPad Prism 7.02.
Three week juvenile schistosomes, incubated with compounds (1), (3) or controls for 72 hrs, were subsequently cultured with PI at a final concentration of 2 μg/mL for 15 minutes at 37 °C in an environment containing 5% CO2. PI positive parasites (dead) were counted and the percent live vs dead in each well is indicated. A) Quantification of compound (1) mediated juvenile death. B) Quantification of compound (3) mediated juvenile death.

Where [5] appears, read: Schistosoma mansoni, read-out: ADULT WORM EC50 Female.
Where [6] appears, read: Schistosoma mansoni, read-out: ADULT WORM EC50 Male.
The mark [7] stands for this setting: 72 hrs, 95% confidence interval, read-out: SCHISTOSOMULA EC50 Motility.
Setting [8] is: 72 hrs, 95% confidence interval, read-out: SCHISTOSOMULA EC50 Phenotype.

As for `CC(Br)C(=O)NC1CCOC1=O` (centres unmarked) [Compound 2, 2-bromo-N-(2-oxotetrahydrofuran-3-yl)propanamide], the half-maximal effective concentration (EC50) in data set [1] (setting [5]) is over 20 µM; in data set [1] (setting [6]), over 20 µM; in the data set on S. mansoni schistosomula (setting [7]), over 10 µM; with S. mansoni schistosomula (setting [8]) it was over 10 µM. Also, in data set [1], the “effect on adult worm motility/lethality” value is “no activity”. In addition, the half-maximal cytotoxic concentration (CC50) at 24 h in data set [2] was over 200 µM.

On to `CC(Br)C(=O)NC1CCSC1=O` (centres unmarked) [Compound 4, 2-bromo-N-(2-oxotetrahydrothiophen-3-yl)propanamide], for which the EC50 was over 10 µM in data set [1] (read-out: ADULT WORM EC50 Female), over 10 µM in data set [1] (read-out: ADULT WORM EC50 Male), 18.4 µM in data set [1] (setting [5]) and 10.5 µM in data set [1] (setting [6]). The “effect on adult worm motility/lethality” value in data set [1] is “only demonstrated lethality at the highest concentration”. In the data set on S. mansoni schistosomula, the “Selectivity index, schistosomula motility” value is listed as 15.4. Further, the “Selectivity index, schistosomula phenotype” value in the data set on S. mansoni schistosomula is 14.4.

Consider `O=C(CBr)N[C@@H]1CCOC1=O` [Compound 5, (R)-2-bromo-N-(2-oxotetrahydrofuran-3-yl)acetamide], for which the 50% effective concentration (EC50) in data set [1] (setting [5]) was over 10 µM; in data set [1] (setting [6]), over 10 µM; in the data set on S. mansoni schistosomula (setting [7]), 3.1 µM; in the data set with S. mansoni schistosomula (setting [8]), 4 µM. Further, the “effect on adult worm motility/lethality” value in data set [1] is listed as “complete immobility”. Also, the minimum inhibitory concentration (MIC) turned out to be 125 mg/L against S. aureus ATCC 29213 (no visible growth), 563 µM against S. aureus ATCC 29213 (value in square brackets), 125 mg/L in the data set with E. coli ATCC 25922 (no visible growth) and 563 µM in the data set on E. coli ATCC 25922 (value in square brackets). Also, the “Selectivity index, schistosomula motility” value in the data set on S. mansoni schistosomula was found to be 16.3. Besides, the “Selectivity index, schistosomula phenotype” value in the data set with S. mansoni schistosomula worked out at 12.7. Also, half-maximal cytotoxicity in data set [2] (CC50 at 24 h) was put at 50.6 µM. For the same molecule, the “effect on egg production (fecundity)” value in data set [3] is given as “reduced egg production”.

In the case of `O=C(CBr)N[C@H]1CCOC1=O` [Compound 6, (S)-2-bromo-N-(2-oxotetrahydrofuran-3-yl)acetamide], the “Selectivity index, adult worm male” value in data set [1] (HepG2 CC50 / adult male EC50) was determined as 6.3. In addition, the figures for the EC50 (in data set [1] (setting [5]); in the data set with S. mansoni schistosomula (setting [7]); in the data set with S. mansoni schistosomula (setting [8])) were over 20 µM, over 10 µM and over 10 µM, respectively. For the same molecule, the “effect on adult worm motility/lethality” value in data set [1] was “did not have this effect”. Further, the minimum inhibitory concentration (MIC) was over 125 mg/L against S. aureus ATCC 29213 (no visible growth), over 563 µM against S. aureus ATCC 29213 (value in square brackets), over 125 mg/L with E. coli ATCC 25922 (no visible growth) and over 563 µM in the data set on E. coli ATCC 25922 (value in square brackets). In addition, the “anti-schistosomula activity (phenotype and motility)” value in the data set on S. mansoni schistosomula (titration 10 to 0.625 μM, 72 hrs) was “no anti-schistosomula activity was observed”. In data set [2], this molecule yielded a CC50 at 24 h of over 100 µM. Moreover, the “effect on egg production (fecundity)” value in data set [3] is recorded as “reduced egg production”.

With `O=C(CCl)NC1CCOC1=O` (centres unmarked) [Compound 7, 2-chloro-N-(2-oxotetrahydrofuran-3-yl)acetamide], the “effect on adult worm motility/lethality” value in data set [1] was “No lethality/motility defects were observed”.

With `O=C(CCl)NC1CCSC1=O` (centres unmarked) [Compound 8, 2-chloro-N-(2-oxotetrahydrothiophen-3-yl)acetamide], the “effect on adult worm motility/lethality” value in data set [1] is “No lethality/motility defects were observed”.

Take `CC(Cl)C(=O)NC1CCOC1=O` (centres unmarked) [Compound 9, 2-chloro-N-(2-oxotetrahydrofuran-3-yl)propanamide]: the “effect on adult worm motility/lethality” value in data set [1] is “No lethality/motility defects were observed”.

Consider `O[C@H]([C@H](O)COC(c1ccccc1)(c1ccccc1)c1ccccc1)[C@@H](O)COC(c1ccccc1)(c1ccccc1)c1ccccc1` [Compound E, (2R,3s,4S)-1,5-bis(trityloxy)pentane-2,3,4-triol], for which the “effect on schistosomula motility and phenotype metrics in initial screen” value in the data set on S. mansoni schistosomula (10 μM, 72 hrs) is “negatively affected both schistosomula motility and phenotype metrics”. Also, the EC50 in the data set with S. mansoni schistosomula (72 h, read-out: average EC50 for phenotype and motility, schistosomula) was 5.6 µM.

`CC(=O)OC[C@H]1O[C@@H]([S-])[C@H](OC(C)=O)[C@@H](OC(C)=O)[C@@H]1OC(C)=O.CCP(CC)CC.[Au+]` [auranofin, reference compound]: the “Percent P.I positive parasites” value in data set [4] was determined as 100%.
